# Measured values published in a melting point compilation (Tetko et al.; mined from patent text by program, amines drawn as free bases though some values may be those of a salt).
row,SMILES,melting point [°C]
1,CCOC(=O)c1ccc(-c2ccc(C#N)cc2)s1,133 to 134
2,Cc1ccc2cccc(OCc3c(Cl)ccc(S(=O)(=O)N(C)Cc4cccc(C(=O)O)c4)c3Cl)c2n1,204
3,Cc1nc(N)c2nc(C)n(CCOc3ccccc3)c2c1C,176 to 177
4,O=C1CC[N+]([O-])=C(c2ccccc2Cl)c2cc(Cl)ccc21,184 to 187
5,COc1ccc(N(CCCC(=O)O)C(=O)C(C)N(C(=O)c2ccc(Cl)cc2Cl)c2ccc(OC)cc2)cc1 (configuration not stated),159 to 160
6,CCOc1ccc2c(c1)C(C)=CC(C)(C)N2C(=O)OC,54.5 to 56.5
7,CCOC(=O)Nc1c(C#N)c(C(F)(F)F)nn1-c1c(Cl)cc(C(F)(F)F)cc1Cl,177 to 179
8,COc1ccc(C=CC(=O)Nc2c(-c3ccccc3C)c3cc4c(cc3oc2=O)CCC4)cc1OC,159 to 160
9,O=C(c1ccccc1)n1cc(-c2ccccc2)c2ccccc21,154 to 156
10,Cc1cc(C(=O)N[C@@H](CC(C)C)C(=O)N[C@@H](C(C)C)[C@@H](O)c2c(-c3ccccc3)c2=O)n(C)n1,115 to 118
11,CCOC(=O)Nc1nc(C)c(-c2nc3ccccc3c(=O)n2-c2ccc(C)cc2)s1,220 to 222
12,COc1ccc(/C=C/C(=O)C2C(=O)CC(c3ccc(OC)cc3)C([N+](=O)[O-])C2c2ccc(OC)c(OC)c2)cc1 (configuration not stated),126 to 128
13,FC(F)(F)c1nc(Cl)c(-c2ccccc2)c(-c2ccccc2)n1,105 to 107
14,COc1cc(CO)cc2c1OCO2,66 to 67
15,O=C(c1ccccc1)c1ccc(-c2nc(COc3ccc(CCCCn4ccnc4)cc3)co2)cc1,91 to 92
16,O=C(CCCl)c1ccc2c(c1)Cc1cc(C(=O)CCCl)ccc1S2,105 to 107
17,CCCCCCCN(CCCCCSc1nc(-c2ccccc2)c(-c2ccccc2)[nH]1)c1nc2ccccc2o1,58 to 60
18,CCCn1cc(Cc2ccc(C(=O)O)cc2OC)c2cc(C=CCCC(=O)N(C)C)ccc21,151 to 153
19,CC(C)CCN1C(=O)C2(COc3cc(O)c(C(=O)C(F)(F)F)cc32)c2ccccc21 (configuration not stated),87 to 88
20,CC(C)(C)OC(=O)NCC(O)c1ccco1 (configuration not stated),89 to 90
21,CCCC(=O)c1cnc2c(OC)cccc2c1Nc1c(C)cc2c(c1C)OCO2,150 to 152
22,O=C1CCC(N2Cc3c(OCc4ccc(C(F)(F)F)cc4)cccc3C2=O)C(=O)N1 (configuration not stated),241 to 243
23,CCCSc1sc(C(=O)NC)c2c1-c1c(cnn1CC(F)(F)F)CC2,75 to 76
24,CN(C)CCCc1ccc(S(=O)(=O)N2CCC(Nc3nc(N)c(C(=O)c4c(F)cccc4F)s3)CC2)cc1,117 to 120

row,SMILES,melting point [°C]
1,CCOC(=O)CC(C(=O)c1ccc(Cl)cc1)C(=O)c1ccc(Cl)cc1,108
2,CC1=CC(O)C(OC(=O)c2ccco2)C(C)(C)CC1=O (configuration not stated),102 to 104
3,N#Cc1ccc(Oc2c(Cl)cc(Cl)cc2Cl)cc1Cl,108 to 116
4,O=S(=O)(Cl)c1ccccc1Cn1cncn1,180 to 195
5,CC(C)(C)NC(=O)Nc1nc2nc(N)ncc2cc1-c1c(Cl)cccc1Cl,335
6,O=C(O)CC1CCCCCCCCCCC1=O (configuration not stated),124
7,COC(=O)c1ccc(C#CCc2cccc3c2SCCC3(C)C)cc1,92
8,O=C(O)Cc1c(C(=O)c2ccccc2)[nH]c2cccc(Cl)c12,206 to 209
9,O=C1CCC(C(=O)NCc2cccc3ccccc23)c2ccccc21 (configuration not stated),155 to 156
10,Nc1cccc(NC(=O)C(=O)N2CCC(Cc3ccc(F)cc3)CC2)c1,117 to 120
11,CC(=O)c1ccc2c(C(=O)c3ccc(OCCN4CCCCC4)cc3)c(-c3ccc(O)cc3)sc2c1,97 to 100
12,Cc1cc(OCc2ccccc2)cc2nc(OC(C)C)oc(=O)c12,137 to 138
13,CN(C)CCn1c(=O)c2ccc(N)cc2c2cnc3cc4c(cc3c21)OCO4,300 to 301
14,COC(=O)C1CCC2C3CCC4CC(=O)CCC4(C)C3C(NC3CCCC3)CC12C (configuration not stated),156 to 158
15,CSc1ccc(C=C2CCc3cc(OCCn4ccnc4)ccc3C2=O)cc1,161 to 162
16,CNC(=S)C(CN1CCOCC1)(OC)c1ccccn1 (configuration not stated),128 to 132
17,Cc1ccc(C(C#N)=NOS(C)(=O)=O)cc1C,91 to 95
18,N#Cc1ncn2c(-c3cccc(C(F)(F)F)c3)ccnc12,168 to 169
19,Cc1cc(C)cc(Cc2c(C(C)C)c(=O)[nH]c(=O)n2COCCCN(OC(=O)Oc2ccccc2)C(=O)Oc2ccccc2)c1,59 to 61
20,O=S(=O)(Nc1ccc2c(OCc3ccc(Br)cc3F)cccc2c1)C(F)(F)F,123 to 125
21,O=C(Cc1ccc2c(c1)OCO2)N[C@H]1CC[C@H](CCN2CCN(c3nccc4c3OCC4)CC2)CC1,187
22,NC(=O)c1ccc(N)c(C(N)=O)c1,177 to 198
23,CC(=O)CC(=O)NC1CC1,65 to 66
24,Cc1ccc(C(N)=O)cc1F,161 to 163

row,SMILES,melting point [°C]
1,NC(=O)c1cc2cc(N3CCNCC3)ccc2o1,252 to 255
2,Nc1nc2c(N)cc(OC(F)(F)F)cc2s1,206
3,CC(C)(C)NCC(O)COc1ccccc1CCCc1cccc2[nH]ccc12 (configuration not stated),96
4,COC(=O)c1cc(C(C)OC(C)C)c(C(F)(F)F)cc1N (configuration not stated),87 to 90
5,CCCCCCCCCCCCCCOc1ccc(CNC(C)=O)cc1,100 to 101
6,Cc1c(N2CCNC(C)C2)c(F)cc2c(=O)c(C(=O)O)cn(C3CC3)c12 (configuration not stated),206 to 208
7,Nc1nc2ccc(CCN3CCC(Cc4ccccc4)CC3)cc2s1,152 to 153
8,Fc1cccc2sc(C3=CCNCC3)cc12,83 to 86
9,Cc1nc2ccc(Cl)cn2c(=O)c1CCN1CCN(c2cccc(Cl)c2)CC1,152 to 154
10,CN(C)CCOC(=O)c1cccc2cc(-c3ccccc3)oc12,56.5 to 58
11,CCOC(=O)c1c(CN2CCCCC2)nc2cc(OC)c(OC)cc2c1-c1ccc(OC)c(OC)c1,148 to 149
12,Cc1cc(C2CC(C)(C)NC(C)(C)C2)cc(C)c1O,152 to 154
13,CC(C)N(CCC(C(N)=O)(c1ccccc1)C1CCCCN1)C(C)C (configuration not stated),107 to 108
14,Cc1ccc(C2COc3c(C)c(C)c(Br)c(C)c32)cc1 (configuration not stated),108 to 109
15,CCCCNc1nc(N)nc(NCCCC)n1,73
16,N#Cc1cc(NC(=O)c2cc3ccccc3s2)ccc1N(CCO)CCO,163 to 168
17,COC(=O)C(C)Oc1ccc(NC(=O)CCCCCOCc2ccccc2)cc1 (configuration not stated),73 to 76.5
18,CON=C(C(=O)OC)c1csc(N)n1,165
19,O=C(O)c1ccc(C(F)(F)F)c(N2CCOCC2)n1,116 to 117
20,Nc1ccc2c(c1)Sc1ccc(N)cc1S2,185 to 186
21,CC(C)CC(=O)Nc1cccc(-c2ccnc3c(-c4cccs4)cnn23)c1,148 to 150
22,CCc1c(-c2ccc(O)cc2)c2cc(C(C)=O)c3cc(O)cc1n32,274 to 275
23,CC(C)n1nc(-c2c(-c3ccccc3)nn3ccc(OCCN4CCCCC4)cc23)ccc1=O,144
24,CCOC(=O)C=Cc1c(N)nc(C)c(NC(C)=O)c1C,204 to 205
